We go through 2 molecules from ChEMBL document CHEMBL1122373, “Multisubstrate adducts as potential inhibitors of S-adenosylmethionine dependent methylases: inhibition of indole N-methyltransferase by (5'-deoxyadenosyl)[3-(3-indolyl)prop-1-yl]methylsulfonium and (5'-deoxyadenosyl)[4-(3-indolyl)but-1-yl]methylsulfonium salts” (J Med Chem, 1983).

A value given as a limit tells only on which side of the number the result lay.

The target of the test is T1, Catechol O-methyltransferase (Sus scrofa, UniProt Q99028).
T1 sequence (Q99028 whole entry): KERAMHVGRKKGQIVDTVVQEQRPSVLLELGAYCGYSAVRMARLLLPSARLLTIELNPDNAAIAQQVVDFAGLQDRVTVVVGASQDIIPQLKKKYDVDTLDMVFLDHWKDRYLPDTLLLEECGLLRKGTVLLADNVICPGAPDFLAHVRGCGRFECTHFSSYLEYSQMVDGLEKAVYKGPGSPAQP
Kind of test: Inhibitory activity against catechol O-methyltransferase. The following applies: read-out: I50.

With `C[S+](CCCCc1c[nH]c2ccccc12)C[C@H]1O[C@@H](n2cnc3c(N)ncnc32)[C@H](O)[C@@H]1O` (some centres not stated), the IC50 was found to be 10 mM.
Consider `C[S+](CCCc1c[nH]c2ccccc12)C[C@H]1O[C@@H](n2cnc3c(N)ncnc32)[C@H](O)[C@@H]1O` (some centres not stated), for which the IC50 was over 10 mM.
